{
  "source": "patent US20250281506A1",
  "about": "“APPLICATION OF HYDROXYPROGESTERONE CAPROATE IN ENHANCING TUMOR TREATMENT EFFECT” (SHENZHEN EVERGREEN THERAPEUTICS CO., LTD., priority 2021, published 2025)",
  "key": {"[1]": {"system": "Renca tumor", "test": "BALB/c mouse Renca renal cell carcinoma tumor model, tumor inhibition rate", "type": "in vivo, BALB/c mice", "design": "Tumor Inhibition Rates (Compared with Control Group): concentration or dose not given beside the values", "settings": "for Tumor Inhibition Rates (Compared with Control Group): Renca model", "experimental": "BALB/c female mice, aged 6-8 weeks and weighing around 20 grams, were utilized. Renca cells (3.0×106) dissolved in 100 μL PBS were subcutaneously injected into the BALB/c mice. Upon reaching a tumor volume of about 70 mm^3, experimental animals were randomly distributed into control and treatment groups.\nLenvatinib was administered orally once daily at a dosage of 7.5 mg/kg; hydroxyprogesterone caproate was administered intraperitoneally (abbreviated as i.p. in the table) every two days. Anti-PD-1 antibody (BioXCell, Supplier: Yicon (Beijing) Medical Technology Inc.) was diluted in PBS and administered every four days at a dose of 100 μg per mouse.\nTumor size was measured biweekly using calipers for two-dimensional measurements. The volume was calculated using the formula and expressed in mm^3: V=(X^2Y)/2, where X and Y represent the shorter and longer diameters of the tumor, respectively."}, "[2]": {"system": "CT26 tumor", "test": "BALB/c mouse CT26 tumor model with anti-PD-L1 antibody 10F.9G2", "type": "in vivo, BALB/c mice", "settings": "anti-PD-L1 10F.9G2", "experimental": "Female BALB/c mice aged 6-8 weeks, weighing approximately 20 grams, were used. CT26 cells (5.0×106) dissolved in 100 μL PBS were subcutaneously injected into the BALB/c mice. When the tumor volume reached ˜100 mm^3, the experimental animals were randomly assigned to control and treatment groups, and drug administration commenced.\nLenvatinib (Eisai, Japan) was administered orally once daily at a dose of 10 mg/kg; Hydroxyprogesterone Caproate was administered via intraperitoneal injection every two days; 10F.9G2 was administered every three days at a dose of 200 μg/mouse. Drug administration continued for approximately 20 days.\n2) Tumor volume was measured twice a week, and its size was calculated using the formula: […]"}, "[3]": {"system": "MC38/hPD-L1 tumor", "test": "Humanized PD-1 mouse MC38/hPD-L1 tumor model", "type": "in vivo, humanized PD-1 mice", "experimental": "Humanized PD-1 mice, female, aged 6-8 weeks, weighing approximately 20 grams, were used. MC38/hPD-L1 cells (5.0×106) dissolved in 100 μL PBS were injected subcutaneously into the humanized PD-1 mice. Upon reaching a tumor volume of approximately ˜100 mm^3, experimental animals were randomly assigned to control and various treatment groups and subsequently initiated with drug administration.\nLenvatinib (Eisai, Japan) was administered orally once daily at a dose of 10 mg/kg. Hydroxyprogesterone Caproate was administered via intraperitoneal injection every two days. Pembrolizumab was administered every three days at a dose of 200 μg per mouse. The duration of drug administration lasted around 20 days.\n2) Tumor volume measured twice weekly."}, "[4]": {"system": "CT26 tumor", "test": "BALB/c mouse CT26 tumor model, tumor volume / tumor inhibition rate", "type": "in vivo, BALB/c mice", "design": "Tumor Inhibition Rate (Compared with Control Group): concentration or dose not given beside the values", "settings": "for Tumor Inhibition Rate (Compared with Control Group): CT26 model", "experimental": "Female BALB/c mice aged 6-8 weeks with a body weight of approximately 20 grams were used. CT26 cells (5.0×106) dissolved in 100 μL of PBS were subcutaneously injected into BALB/c mice. When the tumor volume reached approximately 100 mm^3, the experimental animals were randomly divided into control and various treatment groups for the experiment.\nLenvatinib was administered orally once daily at a dosage of 10 mg/kg. Hydroxyprogesterone caproate was administered via intraperitoneal injection (abbreviated as i.p. in the table below) every two days. Anti-PD-1 antibody (RMP1-14), diluted in PBS, was administered every three days at a dosage of 200 μg per mouse.\nTumor size was measured using calipers twice a week for two-dimensional assessment. Tumor volume was calculated using the formula V=(X2Y)/2, where X and Y represent the shorter and longer diameters of the tumor, respectively, expressed in mm^3."}},
  "note": "“Also recorded” adds a separate entry of the source.",
  "data": [
    {"smiles": "COc1cc2nccc(Oc3ccc(NC(=O)NC4CC4)c(Cl)c3)c2cc1C(N)=O", "note": "[Lenvatinib]", "values": [
      {"measurement": "Tumor Inhibition Rates (Compared with Control Group)", "setting": "[1]; Day 6", "result": 0.00, "unit": "%"},
      {"measurement": "Tumor Inhibition Rates (Compared with Control Group)", "setting": "[1]; Day 9", "result": 22.92, "unit": "%"},
      {"measurement": "Tumor Inhibition Rates (Compared with Control Group)", "setting": "[1]; Day 13", "result": 48.51, "unit": "%"},
      {"measurement": "Tumor Inhibition Rates (Compared with Control Group)", "setting": "[1]; Day 16", "result": 55.37, "unit": "%"},
      {"measurement": "Tumor Inhibition Rates (Compared with Control Group)", "setting": "[1]; Day 20", "result": 70.68, "unit": "%"}
    ]},
    {"smiles": "CCCCCC(=O)O[C@]1(C(C)=O)CC[C@H]2[C@@H]3CCC4=CC(=O)CC[C@]4(C)[C@H]3CC[C@@]21C", "note": "[HPC, Hydroxyprogesterone caproate]", "values": [
      {"measurement": "Anti-tumor effect (in words)", "setting": "[2]", "result": "did not exhibit significant tumor suppression"},
      {"measurement": "Anti-tumor effect (in words)", "setting": "[3]", "result": "did not exhibit significant tumor inhibitory effects"},
      {"measurement": "Tumor suppression effect (in words)", "setting": "[4]; BALB/c mouse CT26 tumor model, HPC 20 mg/kg i.p., Lenvatinib 10 mg/kg p.o., RMP1-14 200 μg/mouse", "result": "did not exhibit a favorable tumor suppression effect; also recorded: promoting tumor growth"},
      {"measurement": "Tumor Inhibition Rate (Compared with Control Group)", "setting": "[4]; Day 0", "result": 0.00, "unit": "%"},
      {"measurement": "Tumor Inhibition Rate (Compared with Control Group)", "setting": "[4]; Day 4", "result": 3.66, "unit": "%"},
      {"measurement": "Tumor Inhibition Rate (Compared with Control Group)", "setting": "[4]; Day 7", "result": "−14.89", "unit": "%"},
      {"measurement": "Tumor Inhibition Rate (Compared with Control Group)", "setting": "[4]; Day 11", "result": "−13.61", "unit": "%"},
      {"measurement": "Tumor Inhibition Rate (Compared with Control Group)", "setting": "[4]; Day 14", "result": "−31.32", "unit": "%"},
      {"measurement": "Tumor Inhibition Rate (Compared with Control Group)", "setting": "[4]; Day 18", "result": "−47.15", "unit": "%"},
      {"measurement": "Tumor Inhibition Rate (Compared with Control Group)", "setting": "[4]; Day 20", "result": "−37.09", "unit": "%"},
      {"measurement": "Tumor suppression effect (in words)", "setting": "[1]; BALB/c mouse Renca tumor model", "result": "exhibits a certain degree of tumor suppression"},
      {"measurement": "Tumor Inhibition Rates (Compared with Control Group)", "setting": "[1]; Day 6", "result": 0.00, "unit": "%"},
      {"measurement": "Tumor Inhibition Rates (Compared with Control Group)", "setting": "[1]; Day 9", "result": 40.00, "unit": "%"},
      {"measurement": "Tumor Inhibition Rates (Compared with Control Group)", "setting": "[1]; Day 13", "result": 48.51, "unit": "%"},
      {"measurement": "Tumor Inhibition Rates (Compared with Control Group)", "setting": "[1]; Day 16", "result": 43.95, "unit": "%"},
      {"measurement": "Tumor Inhibition Rates (Compared with Control Group)", "setting": "[1]; Day 20", "result": 56.59, "unit": "%"}
    ]}
  ]
}
